Data on eight compounds can be found in patent US20250344731A1, “SALTY TASTE/UMAMI ENHANCER” (AJINOMOTO CO., INC., priority 2023, published 2025).

Assay [1] in a line: Sensory evaluation of umami enhancement function, naringenin-related flavonoid components in umami solution (Example 4). The note with it: for degree of umami enhancement (times) / umami intensity (points): 30 ppm in NC (sodium glutamate 0.1%); for degree of umami enhancement (times): relative to NC; for umami intensity (points): scale water = 0, NC = 0.30, panel of three, average. How it is done: • 1) The five naringenin-related flavonoid components evaluated in Example 3 were used. • 2) Quercetin was used as the control component. Umami solutions were prepared as shown in Table 10: Umami solution (weight g/100 g). Water at ordinary temperature was used for preparation. Each naringenin-related flavonoid component and the like dissolved in propylene glycol (SIGMA) at 10000 ppm was added to the prepared 0.1% umami aqueous solution such that the concentration at the time of eating was 30 ppm (Table 11). The umami intensity of each sample was blindly evaluated using a scoring system in 0.05 point increments, with the umami intensity of water in test plot 1 as 0 point and the umami intensity of NC in test plot 2 as 0.30 points. The evaluation was performed by a trained panel of three, and the average score was used. The umami enhancement function of samples whose umami intensity was enhanced by 1.5 times or more (sodium glutamate 0.45 points or more) due to the addition was evaluated to be functional. In addition, the presence or absence, and intensity of off-taste (bitterness and harsh taste other than umami) were also evaluated. The evaluation results are shown in Table 12: Sensory evaluation (umami intensity).

Assay [2] can be described thus: Sensory evaluation of saltiness enhancement function, naringenin-related flavonoid components in NaCl aqueous solution (Example 3). The note with it: for saltiness intensity: 30 ppm in NC salt water (NaCl 0.8%), scale NC = 1.0, PC1 0.9% = 2.0, PC2 1.0% = 3.0, panel of three, average. The source says:
1) The following flavonoid components were used as naringenin-related flavonoid components: • Luteolin (manufactured by Salus Nutra Inc.), pinocembrin (manufactured by Xi'an Demeter Biotech Co., Ltd.), liquiritigenin (manufactured by Xi'an Julong Import and Export Co., Ltd.), apigenin (manufactured by Xi'an Best Bio-Tech Co., Ltd.), and acacetin (manufactured by Xi'an Reain Biotechnology Co., Ltd.)
2) The following compound was used as control component: Quercetin (manufactured by Medience Corporation) (structure shown below)
As shown in Table 7: NaCl aqueous solution (weight g/100 g), various NaCl aqueous solutions (saline solutions) were prepared. Water at ordinary temperature was used for preparation.
Each naringenin-related flavonoid component dissolved in propylene glycol (SIGMA) at 10000 ppm was added to the prepared 0.8% salt water solution such that the concentration at the time of eating (corresponding to the content of the present flavonoid component or a salt thereof in the oral ingestion product at the time of oral ingestion, as a flavonoid component relative to the oral ingestion product) was 30 ppm (Table 8).
The saltiness intensity of each sample was blindly evaluated using a scoring system in 0.5 point increments, with the saltiness intensity of NC in test plot 1 as 1.0 point, the saltiness intensity of PC1 as 2.0 points, and the saltiness intensity of PC2 as 3.0 points. The evaluation was performed by a trained panel of three, and the average score was used. Since the saltiness intensity of 2.0 points of PC1 is evaluated to be clearly stronger in saltiness than NC, samples with a saltiness intensity of 1.5 points or more (NaCl 0.85% or more) were evaluated to have a saltiness enhancement function. In addition, the presence or absence, and intensity of off-taste (bitterness and harsh taste other than saltiness) were also evaluated. The evaluation results are shown in Table 9: Sensory evaluation (saltiness intensity).

Assay [3] is described as follows: Sensory evaluation of saltiness enhancement function, naringenin/naringin added to NaCl aqueous solution (Example 1). The note with it: for saltiness intensity: scale NC = 1.00, PC 0.9% NaCl = 5.5; for saltiness enhancement function: addition of 1 ppm or more to salt water, function = saltiness intensity 1.8 points or more. The protocol: As shown in Table 1: NaCl aqueous solution (weight g/100 g), various NaCl aqueous solutions (saline solutions) were prepared. Filtered water at ordinary temperature was used for preparation. Water, naringenin (Penta Manufacturing), or naringin (IKEDA CORPORATION) were weighed and added to the prepared 0.8% aqueous solution at various concentrations shown in Table 2: Prepared sensory evaluation samples. The saltiness intensity of each sample was blindly evaluated using a scoring system in 0.1 point increments, with the saltiness intensity of NC in test plot 1 as 1.00 point and the saltiness intensity of PC in test plot 2 as 5.5 points. The evaluation was performed by a trained panel of three, and the average score of each panel was used. Samples with a saltiness intensity of 1.8 points or more (NaCl 0.84% or more) due to the addition were evaluated to “have a saltiness enhancement function”. In addition, the presence or absence, and intensity of off-taste (bitterness and harsh taste other than saltiness) were also evaluated. The evaluation results are shown in Table 3: Sensory evaluation (saltiness intensity).

Experiment in assay [4]: as above
As to conditions: 30 ppm added to water (NaCl 0%); scale NC 0.8% NaCl = 1.00, PC 0.9% NaCl = 5.5; panel of three, average.

Assay [5] is described as follows: Sensory evaluation of umami enhancement function, naringenin/naringin added to sodium glutamate umami solution or water (Example 2). As to conditions: for umami enhancement function: addition to umami solution (sodium glutamate, sodium aspartate), 30 ppm, function = 1.5 times or more. How it is done: (§1) As shown in Table 4: Umami solution (weight g/100 g), an umami solution was prepared. Water at ordinary temperature was used for preparation. Water, naringenin (Penta manufacturing) or naringin (IKEDA CORPORATION) were weighed and added to each of the prepared umami solutions or water at various concentrations shown in Table 5: Prepared sensory evaluation samples. The umami intensity of each sample was blindly evaluated using a scoring system in 0.01 point increments, with the umami intensity of water in test plot 1 as 0 point, the umami intensity of NC in test plot 3 as 0.30 points, and the umami intensity of NC2 in test plot 4 as 0.10 point. The evaluation was performed by a trained panel of three, and the average score of each panel was used. Samples whose umami intensity was enhanced by 1.5 times or more (sodium glutamate 0.45 points or more, sodium aspartate 0.15 points or more) due to the addition were evaluated to “have an umami enhancement function”. In addition, the presence or absence, and intensity of off-taste (bitterness and harsh taste other than umami) were also evaluated. The evaluation results are shown in Table 6: Sensory evaluation (umami intensity).

Assay [6] can be described thus: Sensory evaluation of umami enhancement function, naringenin/naringin added to sodium aspartate umami solution (Example 2). As to conditions: 30 ppm added to NC2 (Asp-Na, sodium aspartate 0.2%); for umami intensity (points): NC2 = 0.10 point; for degree of umami enhancement (times): relative to NC2. The protocol: as §1
Where [7] appears, read: 1 ppm added to NC salt water (NaCl 0.8%).
[8] abbreviates: 10 ppm added to NC salt water (NaCl 0.8%).
Where [9] appears, read: 30 ppm added to NC salt water (NaCl 0.8%).
Setting [10] is: 30 ppm added to NC1 (MSG, sodium glutamate 0.1%), NC1 = 0.30 points.
Where [11] appears, read: 30 ppm added to NC1 (MSG, sodium glutamate 0.1%), relative to NC1.
Setting [12] is: 30 ppm added to water, scale water = 0, NC1 = 0.30, NC2 = 0.10.

Take `O=C1CC(c2ccccc2)Oc2cc(O)cc(O)c21` (stereo not drawn) [Pinocembrin, 5,7-dihydroxy-2-phenyl-2,3-dihydro-4H-chromene-4-one]: in assay [1], the “degree of umami enhancement (times)” value was 1.67 times and the “umami intensity (points)” value was determined as 0.50 points. Also, the saltiness intensity in assay [2] was 2.0 points.
In the case of `O=c1cc(-c2ccc(O)cc2)oc2cc(O)cc(O)c12` [Apigenin, 5,7-dihydroxy-2-(4-hydroxyphenyl)-4H-1-benzopyran-4-one], in assay [1], the “degree of umami enhancement (times)” value is 1.87 times and the “umami intensity (points)” value is recorded as 0.56 points. The saltiness intensity in assay [2] amounted to 3.5 points.
`O=C1C[C@@H](c2ccc(O)cc2)Oc2cc(O)ccc21` [Liquiritigenin, (2S)-4′,7-dihydroxyflavan-4-one]: in assay [1], the “degree of umami enhancement (times)” value is recorded as 1.87 times and the “umami intensity (points)” value turned out to be 0.56 points. Moreover, the saltiness intensity in assay [2] amounted to 3.5 points.
Turning to `O=C1C[C@@H](c2ccc(O)cc2)Oc2cc(O)cc(O)c21` (stereo in doubt) [Naringenin, 5,7-dihydroxy-2-(4-hydroxyphenyl)chroman-4-one], the saltiness intensity was found to be 1.9 points in assay [3] (setting [7]); 2.4 points in assay [3] (5 ppm added to NC salt water (NaCl 0.8%)); 3.0 points in assay [3] (setting [8]); 2.9 points in assay [3] (setting [9]); 0 points in assay [4]. The saltiness enhancement function entry in assay [3] is on record as “showed a saltiness enhancement function”. In addition, the “umami intensity (points)” value in assay [5] (setting [10]) stood at 0.47 points; in assay [5] (setting [12]) it was 0.00 points; in assay [6] it was 0.20 points. The figures for the “degree of umami enhancement (times)” value in assay [5] (setting [11]), in assay [5] (30 ppm added to water) and in assay [6] were 1.6 times, 0 times and 2.0 times, respectively. Besides, in assay [5], the umami enhancement function entry is “showed an umami enhancement function”.
`C[C@@H]1O[C@@H](O[C@H]2[C@H](Oc3cc(O)c4c(c3)O[C@H](c3ccc(O)cc3)CC4=O)O[C@H](CO)[C@@H](O)[C@@H]2O)[C@H](O)[C@H](O)[C@H]1O` [Naringin, naringin, reference compound]: the saltiness intensity is on record as 1.8 points in assay [3] (setting [7]), 2.1 points in assay [3] (setting [8]), 2.2 points in assay [3] (setting [9]) and 0 points in assay [4]. Besides, the saltiness enhancement function result in assay [3] is “also showed a saltiness enhancement function”. For the same compound, the figures for the “umami intensity (points)” value in assay [5] (setting [10]), in assay [5] (setting [12]) and in assay [6] were 0.35 points, 0.00 points and 0.12 points, respectively. The “degree of umami enhancement (times)” value is 1.2 times in assay [5] (setting [11]), 0 times in assay [5] (30 ppm added to water) and 1.2 times in assay [6]. The umami enhancement function entry in assay [5] is given as “no enhancement of the umami intensity was observed”.
Regarding `O=c1cc(-c2ccc(O)c(O)c2)oc2cc(O)cc(O)c12` [Luteolin, 2-(3,4-dihydroxyphenyl)-5,7-dihydroxy-4-chromenone], in assay [1], the “degree of umami enhancement (times)” value worked out at 1.43 times and the “umami intensity (points)” value was 0.43 points. The umami enhancement effect result in assay [1] (30 ppm in umami solution (sodium glutamate 0.1%), functional = 1.5 times or more) is given as “tendency to enhance umami”. The saltiness intensity in assay [2] is 2.0 points.
Take `O=c1c(O)c(-c2ccc(O)c(O)c2)oc2cc(O)cc(O)c12` [Quercetin, reference compound]: in assay [1], the “degree of umami enhancement (times)” value was 1.00 times and the “umami intensity (points)” value was 0.30 points. For the same compound, the saltiness intensity in assay [2] was found to be 1.3 points. Also, in assay [2] (30 ppm in salt water (NaCl 0.8%), function = 1.5 points or more), the saltiness enhancement effect result is “did not show a saltiness enhancement effect”.
Take `COc1ccc(-c2cc(=O)c3c(O)cc(O)cc3o2)cc1` [Acacetin, 5,7-dihydroxy-4-methoxyflavone]: in assay [1], the “degree of umami enhancement (times)” value is 1.67 times and the “umami intensity (points)” value stood at 0.50 points. In assay [2], the saltiness intensity is 3.5 points.
